Results reported in patent US20220306653A1, “MACROCYCLIC INHIBITORS OF MCL-1” (Janssen Pharmaceutica NV, priority 2019, published 2022).
Values joined by “and” are separate entries in the source; they are usually repeats but may differ in a detail not shown here. Equal entries are not always repeated. Where two headings read alike, the source gives them in different places.

Columns and labels:
[1] = tested on: MOLP-8 human multiple myeloma cell line; experiment: MOLP8 Caspase-Glo 3/7 luminescent assay; assay type: cell-based; details: 2 hours incubation, averaged values over all runs on all batches
Text: (§1) MCL-1 is a regulator of apoptosis and is highly over-expressed in tumor cells that escape cell death. The assay evaluates the cellular potency of small-molecule compounds targeting regulators of the apoptosis pathway, primarily MCL-1, Bfl-1, Bcl-2, and other proteins of the Bcl-2 family. Protein-protein inhibitors disrupting the interaction of anti-apoptotic regulators with BH3-domain proteins initiate apoptosis.
The Caspase-Glo® 3/7 Assay is a luminescent assay that measures caspase-3 and -7 activities in purified enzyme preparations or cultures of adherent or suspension cells. The assay provides a proluminescent caspase-3/7 substrate, which contains the tetrapeptide sequence DEVD. This substrate is cleaved to release aminoluciferin, a substrate of luciferase used in the production of light. Addition of the single Caspase-Glo® 3/7 Reagent in an “add-mix-measure” format results in cell lysis, followed by caspase cleavage of the substrate and generation of a “glow-type” luminescent signal.
This assay uses the MOLP-8 human multiple myeloma cell line, which is sensitive to MCL-1 inhibition.
Cell cultures were maintained between 0.2 and 2.0×10^6 cells/mL. The cells were harvested by collection in 50 mL conical tubes. The cells were then pelleted at 500 g for 5 mins before removing supernatant and resuspension in fresh pre-warmed culture medium. The cells were counted and diluted as needed.
The assay reagent was prepared by transferring the buffer solution to the substrate vial and mixing. The solution may be stored for up to 1 week at 4° C. with negligible loss of signal.
Compounds were delivered in assay-ready plates (Proxiplate) and stored at −20° C.
Assays always include 1 reference compound plate containing reference compounds. The plates were spotted with 40 nL of compounds (0.5% DMSO final in cells; serial dilution; 30 μM highest conc. ⅓ dilution, 10 doses, duplicates). The compounds were used at room temperature and 4 μL of pre-warmed media was added to all wells except column 2 and 23. The negative control was prepared by adding 1% DMSO in media. The positive control was prepared by adding the appropriate positive control compound in final concentration of 60 μM in media. The plate was prepared by adding 4 μL negative control to column 23, 4 μL positive control to column 2 and 4 μL cell suspension to all wells in the plate. The plate with cells was then incubated at 37° C. for 2 hours. The assay signal reagent is the Caspase-Glo solution described above, and 8 μL was added to all wells. The plates were then sealed and measured after 30 minutes.
The activity of a test compound was calculated as percent change in apoptosis induction as follows:
LC=median of the Low Control values • =Central Reference in Screener • =DMSO • =0% ΠC=Median of the High Control values • =Scale Reference in Screener • =30 pM of positive control • =100% apoptosis induction
% Effect (AC50)=100−(sample−LC)/(HC−LC)*100
% Control=(sample/HC)*100
% Control min=(sample−LC)/(HC−LC)*100

[2] = tested on: Molp8 multiple myeloma cell line; experiment: Molp8 multiple myeloma cell line survival assay using Annexin V and 7AAD; assay type: cell-based, human; details: live cell percent by Annexin V/7AAD flow cytometry, 3 days incubation, each independent run listed individually, read-out: MOLP8 Apoptosis IC50
Text: Molp8 multiple myeloma cell line survival assay using Annexin V and 7AAD.
The Annexin V/7AAD principle is based on the location of phosphatidylserine in the plasma membrane and the integrity of the membrane barrier. During early apoptosis, phosphatidylserine loses its normal distribution patterns in the inner leaflet of the plasma membrane and appears on the exterior of the plasma membrane. Annexin proteins are calcium dependent phospholipid binding proteins and can bind phosphatidylserine on the outer membrane during cell death. The viability dye 7AAD is excluded from entering cells with intact plasma membranes but accumulates in cells that have lost membrane integrity. Annexin Fitc is excited by the 488 nm laser (max excitation: 490 nm, max emission: 525 nm) as is 7AAD (excitation: 488 nm, emission: 650 nm), which allows this assay to be completed on any multicolor flow cytometer.
The assay conditions were optimized using the following 1× reaction buffer: 5 mM HEPES (4-(2-hydroxyethyl)-1-piperazineethanesulfonic acid), 70 mM NaCl, 1.25 mM CaCl2, pH 7.4.
The Molp 8 cells were multiple myeloma, human, in suspension (*cells were counted 2× per week and culture density maintained between 0.5 and 1.5×10^6 cells per ml).
On Day 1, 5×10^4 live cells per well were plated in a 96-well U-bottom plate, with the cells plated in 100 uL RPMI+10% FBS. An 11-point compound dilution plate was prepared in 3-fold steps (Final concentration range 10 μM-0.1 nM) and added at a concentration of 1 μL per well. The plate was then incubated for 3 days at 37° C. and 5% CO2.
On Day 4, the cells were pelleted and the media discarded. The cells were then resuspended in 50 μL AnnexinV-Fitc (1:40 dilution) and 7AAD (1:100 dilution) in Annexin binding buffer, then incubated for 30 min @ room temperature in the dark. 50 μL binding buffer (100 uL total volume) was then added to the cells. There was no wash step required.
Within 2 hours, PeCy5 (7AAD) and Fitc (Annexin) channels were recorded using BD Canto, collecting a minimum per singlet of 10,000 events.
The activity of a test compound was calculated based on the live cell percentage. • LC=Median of the low control values • =Low control: cells without treatment (no greater than 100% live) • HC=Median of the high control values • =High control: cells treated with 10 uM drug (no less than 0% live)
A best-fit curve was fitted by a minimum sum of squares method to the plot of live cell percent vs. compound concentration. From this an IC50 value (inhibitory concentration causing 50% cytotoxicity) was obtained. An estimate of the slope of the plot in terms of the Hill coefficient was also obtained.

MOLP8 cells = experiment: MOLP8 CellEvent Caspase-3/7 Green apoptosis activation assay (IncuCyte live-cell kinetic readout); assay type: cell-based; details: each independent run listed
Experimental: as §1
Activation of the apoptotic pathway was measured using the CellEvent™ Caspase-3/7 Green ReadyProbes™ Reagent (Thermo Fisher C10423, C10723). This assay produces a green fluorescent stain in cells that enter the apoptosis pathway. CellEvent® Caspase-3/7 Green reagent is a four amino acid peptide (DEVD) conjugated to a nucleic acid-binding dye that is non-fluorescent when not bound to DNA. The CellEvent® Caspase-3/7 Green reagent is intrinsically non-fluorescent, as the DEVD peptide inhibits binding of the dye to DNA. Upon activation of caspase-3/7 in apoptotic cells, the DEVD peptide is cleaved and the free dye can bind DNA, generating a bright green fluorescence. The activation of Caspase-3 and Caspase-7 is downstream of inhibition of MCL-1 or other apoptosis inhibiting proteins in cell lines that are dependent on them.
The live-cell readout on the IncuCyte permits tracking over time of the Caspase activation. […] The IncuCyte readout also allows one to normalize for cell number, as the suspension cells are hard to distribute evenly.
Signals were measured every 2 h for a duration of 22 h. The ratio of the Caspase mask to the Confluence mask, per image, as raw data, was calculated and the kinetic trace for every well was exported to Genedata Screener for analysis.
In Genedata Screener values for 6 h, 12 h, and 22 h from the kinetic traces were extracted. The values were normalized against negative controls (untreated cells). A standard dose-response analysis was performed on the normalized data.
The following data was reported at each of the following three aforementioned time points: (a) The dose-response curve, (b) The qAC50 and qAC50 Mode, and (c) Max Activity.
Cells were maintained in culture medium containing 10% Heat Inactivated (HI) FBS, 2 mM L-Glutamine and 50 µg/mL Gentamycin phenol red free RPMI-1640. Cells were split at 0.4 million/mL twice a week.
On Day 1, plates containing individual wells with test compounds at 10 mM concentration, 150 nL per well. The final concentrations range from […] compound (and no compound control) and compounds were thawed at room temperature for 1 hour. 25 μl of prewarmed medium was added into each well by multidrop (column 1, 3-22, 24), followed by addition of DMSO control (0.6% DMSO) in column 2. The plate was sealed using Breathe-Easy® sealing membrane and shaken for 30 min at room temperature to dissolve the test compound(s) in medium. The plate was then kept in the incubator for 1 hour at 37° C., 5% CO2.
MOLP8 cells in medium at […] (20000/50 μl final in assay) were prepared with CellEvent™ Caspase-3/7 Green Detection Reagent at 4 μM (2 μM final in assay). Once prepared, the cells were added to the test compound plate in an amount of 20000 and the plate was immediately placed in the IncuCyte and imaging started using following settings: 10× objective, 2 s exposure time in green channel, interval of 2 h, acquisition stopped after 22 h.
For analysis in IncuCyte, a Basic Analysis protocol was defined to calculate the “confluence” and “caspase” areas from the “Phase” and “green” images, respectively, as follows: (a) Confluence: Segmentation Adjustment 1, Hole Fill 0, Adjust Size −2, No filters (b) Caspase: Top-Hat segmentation, Radius 10, Threshold 0.3 GCU, Edge Split On with sensitivity 0, Hole Fill 0, Adjust Size 1, and filter on a minimum Area of 20 μm^2. The analyzer is trained on a sufficient number of positive and negative control wells, as well as compound treated wells, verifying that the “confluence” layer detects both live and dead (condensed) cells. […]

[3] = Homo sapiens, MOLP-8, 6 h, 6 h, read-out: MOLP8 Caspase 3/7 AC50 at 6 h
[4] = Homo sapiens, MOLP-8, 12 h, 12 h, read-out: MOLP8 Caspase 3/7 AC50 at 12 h

SMILES	AC50 ([1]; Homo sapiens, MOLP-8, 2 h) [nM]	AC50 [1] [nM]	other results
Cc1c(C(=O)O)n2c3ccc(Cl)c(c13)-c1c(nn(C)c1C)CN(C)Cc1cc(n(C)n1)CSc1cc(c3ccccc3c1)OCCC2 (single isomer, unassigned) [Compound 5]	14500		
Cc1c(C(=O)O)n2c3ccc(Cl)c(c13)-c1c(nn(C)c1C)CSCc1cc([nH]n1)CSc1cc(c3ccccc3c1)OCCC2 (single isomer, unassigned) [Compound 7]	70		
Cc1c(C(=O)O)n2c3ccc(Cl)c(c13)-c1c(nn(C)c1C)CSCc1cc([nH]n1)CSc1cc(c3ccccc3c1)OCCC2 (single isomer, unassigned) [Compound 8]		90	
CCn1nc2cc1CSc1cc(c3ccccc3c1)OCCCn1c(C(=O)O)c(C)c3c(c(Cl)ccc31)-c1c(nn(C)c1C)CSC2 (single isomer, unassigned) [Compound 10]	120		
CCn1nc2cc1CSCc1nn(C)c(C)c1-c1c(Cl)ccc3c1c(C)c(C(=O)O)n3CCCOc1cc(cc3ccccc13)SC2 (single isomer, unassigned) [Compound 11]	> 30000		
Cc1c(C(=O)O)n2c3ccc(Cl)c(c13)-c1c(nn(C)c1C)CSCc1cc(n(C(C)C)n1)CSc1cc(c3ccccc3c1)OCCC2 (single isomer, unassigned) [Compound 12]	510		
Cc1c(C(=O)O)n2c3ccc(Cl)c(c13)-c1c(nn(C)c1C)CSCc1cc(nn1C(C)C)CSc1cc(c3ccccc3c1)OCCC2 (single isomer, unassigned) [Compound 13]	1250		
Cc1[nH]nc2c1-c1c(Cl)ccc3c1c(C)c(C(=O)O)n3CCCOc1cc(cc3ccccc13)SCc1cc(nn1C)CN(C)C2 (single isomer, unassigned) [Compound 14]		920	
Cc1[nH]nc2c1-c1c(Cl)ccc3c1c(C)c(C(=O)O)n3CCCOc1cc(cc3ccccc13)SCc1cc(nn1C)CN(C)C2 (single isomer, unassigned) [Compound 15]		15300	
Cc1[nH]nc2c1-c1c(Cl)ccc3c1c(C)c(C(=O)O)n3CCCOc1cc(cc3ccccc13)SCc1cc(nn1C)CSC2 (single isomer, unassigned) [Compound 16]		540	
Cc1[nH]nc2c1-c1c(Cl)ccc3c1c(C)c(C(=O)O)n3CCCOc1cc(cc3ccccc13)SCc1cc(nn1C)CSC2 (single isomer, unassigned) [Compound 17]		21300	
Cc1c(C(=O)O)n2c3ccc(Cl)c(c13)-c1c(nn(C)c1C)CN(C)Cc1cc(n(C)n1)CSc1cc(c3ccccc3c1)OCCC2 [Compound 3, 15-chloro-13,21,25,61,4-pentamethyl-11H,21H,61H-10-oxa-8-thia-4-aza-1(4,1)-indola-2(4,3),6(3,5)-dipyrazola-9(3,1)-naphthalenacyclotridecaphane-12-carboxylic acid]			IC50 ([2]; Homo sapiens, MOLP-8, 72 h): 200 nM; IC50 [2]: 256 nM; AC50 (MOLP8 cells; 6 h, read-out: MOLP8 Caspase 3/7 AC50 at 6 h): 178 nM and 251 nM; AC50 (MOLP8 cells; 12 h, read-out: MOLP8 Caspase 3/7 AC50 at 12 h): 263 nM and 195 nM; AC50 (MOLP8 cells; [3]): 347 nM; AC50 (MOLP8 cells; [4]): 363 nM
Cc1c(C(=O)O)n2c3ccc(Cl)c(c13)-c1c(nn(C)c1C)CNCc1cc(n(C)n1)CSc1cc(c3ccccc3c1)OCCC2 [Compound 4, 15-Chloro-13,21,25,61-tetramethyl-11H,21H,61H-10-oxa-8-thia-4-aza-1(4,1)-indola-2(4,3),6(3,5)-dipyrazola-9(3,1)-naphthalenacyclotridecaphane-12-Carboxylic acid]	920		AC50 (MOLP8 cells; [3]): 1620 nM; AC50 (MOLP8 cells; [4]): 1590 nM; AC50 (MOLP8 cells; Homo sapiens, MOLP-8, 22 h, 22 h, read-out: MOLP8 Caspase 3/7 AC50 at 22 h): 1380 nM
Cc1c(C(=O)O)n2c3ccc(Cl)c(c13)-c1c(nn(C)c1C)CN(C(C)C)Cc1cc(n(C)n1)CSc1cc(c3ccccc3c1)OCCC2 [Compound 9]	160		
